Experiment: Storage stability of IPBC in Dowanol TPM solution with cobalt dryer and azole stabilizer (HPLC)
Format: physicochemical
Conditions: 10% by weight IPBC, 5% Octasoligen-Cobalt 8, 5% stabilizer; for Amount of IPBC (start): HPLC at the beginning; for Amount of IPBC (2 weeks, 40° C.): stored at 40° C., HPLC after two weeks
Experimental: A solution was prepared in Dowanol TPM (tripropylene glycol methyl ether), containing 10% by weight of iodopropargyl butylcarbamate, 5% by weight of Octasoligen-Cobalt 8 (Borchers, Langenfeld, Germany) and 5% by weight of the azole compounds of the formula (I) specified as a stabilizer in Table 1. The mixture was stored at 40° C. The amount of IPBC was determined by means of HPLC at the beginning and after two weeks.

| SMILES | Amount of IPBC (start) | Amount of IPBC (2 weeks, 40° C.) |
| --- | --- | --- |
| Nc1nnc(N)[nH]1 [Example 4] | 9.7% | 9.7% |
| Nc1nnc[nH]1 [Example 3] | 9.7% | 9.5% |
| Oc1nnc(S)[nH]1 [Example 2] | 9.9% | 8.9% |
| Sc1nnc[nH]1 [Example 1] | 10.2% | 9.0% |
